Our source for the EC50 and IC50 values is US9249123B2, “Pyridinones/pyrazinones, method of making, and method of use thereof” (Genentech, Inc., priority 2010, dated 2016).

Usually EC50 stands for the midpoint of the concentration-response curve. The low end stands for a more potent agent, the high end for a less potent agent. A word on the IC50: it is the point on the concentration scale where inhibition reaches its midpoint. High values mean weaker potency in that assay, low ones greater potency in that assay.

The subject of the first test is CD86 surface expression on CD19+/7AAD- total mouse splenocytes stimulated with IgM. Briefly: CD86 Inhibition Assay. The format is cell-based. To be noted: Splenocyte; Balb/c mouse splenocytes, IgM stimulation, 24 hr. On the procedure:
A CD86 Inhibition assay can be conducted on Formula I compounds for the inhibition of B cell activity using total mouse splenocytes purified from spleens of 8-16 week old Balb/c mice (Example 905).
A generalized procedure for a standard assay for the inhibition of B cell activity that can be used to test Formula I compounds is as follows. Total mouse splenocytes are purified from spleens of 8-16 week old Balb/c mice by red blood cell lysis (BD Pharmingen #555899). Testing compounds are diluted to 0.5% DMSO and incubated with 1.25×10^6 splenocytes in a final volume of 200 μl in flat clear bottom plates (Falcon 353072) for 60 min at 37° C. Cells are then stimulated with the addition of 15 μg/ml IgM (Jackson ImmunoResearch 115-006-020), and incubated for 24 hr at 37° C., 5% CO2. Following the 24 hr incubation, cells are transferred to conical bottom clear 96-well plates and pelleted by centrifugation at 1200×g×5 min. Cells are preblocked by CD16/CD32 (BD Pharmingen #553142), followed by triple staining with CD19-FITC (BD Pharmingen #553785), CD86-PE (BD Pharmingen #553692), and 7AAD (BD Pharmingen #51-68981E). Cells are sorted on a BD FACSCalibur and gated on the CD19^+/7AAD^− population. The levels of CD86 surface expression on the gated population is measured versus test compound concentration. Exemplary results are in Table 3.
For `Cn1cc(-c2cccc(N3Cc4cc(C(C)(C)C)ccc4C3=O)c2CO)cc(Nc2ccncn2)c1=O` [Compound 107, 5-tert-butyl-2-(2-(hydroxymethyl)-3-(1-methyl-6-oxo-5-(pyrimidin-4-ylamino)-1,6-dihydropyridin-3-yl)phenyl)isoindolin-1-one], the EC50 is 74 nM.
`Cn1cc(-c2cccc(N3Cc4cc(C(C)(C)C)ccc4C3=O)c2CO)nc(Nc2cnn(C3CC3)c2)c1=O` [Compound 109, 5-tert-butyl-2-(3-(6-(1-cyclopropyl-1H-pyrazol-4-ylamino)-4-methyl-5-oxo-4,5-dihydropyrazin-2-yl)-2-(hydroxymethyl)phenyl) isoindolin-1-one] came in with a 50% effective concentration (EC50) of 113 nM. Compared with the last compound, the EC50 is about 1.5-fold higher.
Still for that read-out and setting: with `Cn1cc(-c2cccc(N3Cc4cc(C(C)(C)C)ccc4C3=O)c2CO)cc(Nc2ccc(C3CNC3)cn2)c1=O` [Compound 117, 2-(3-(5-(5-(azetidin-3-yl)pyridin-2-ylamino)-1-methyl-6-oxo-1,6-dihydropyridin-3-yl)-2-(hydroxymethyl)phenyl)-5-tert-butylisoindolin-1-one] the figure was 154 nM; with `Cc1c(-c2cn(C)c(=O)c(Nc3ccc(C4C(=O)N(C)CCN4C)cc3)n2)cccc1N1Cc2cc(C(C)(C)C)ccc2C1=O` (centres unmarked) [Compound 127, 5-tert-butyl-2-[3-(6-{[4-(1,4-dimethyl-3-oxopiperazin-2-yl)phenyl]amino}-4-methyl-5-oxo-4,5-dihydropyrazin-2-yl)-2-methylphenyl]-2,3-dihydro-1H-isoindol-1-one], 498 nM; with `Cn1cc(-c2ccc(F)c(N3Cc4cc(C(C)(C)C)sc4C3=O)c2CO)cc(Nc2ccncn2)c1=O` [Compound 141, 5-(3-{2-tert-butyl-6-oxo-4H,5H,6H-thieno[2,3-c]pyrrol-5-yl}-4-fluoro-2-(hydroxymethyl)phenyl)-1-methyl-3-(pyrimidin-4-ylamino)-1,2-dihydropyridin-2-one], 775 nM.
The compound `CN1CCN(c2ccc(Nc3cc(-c4cccc(N5Cc6cc(C(C)(C)C)sc6C5=O)c4CO)cn(C)c3=O)nc2)CC1` [Compound 146, 5-(3-{2-tert-butyl-6-oxo-4H,5H,6H-thieno[2,3-c]pyrrol-5-yl}-2-(hydroxymethyl)phenyl)-1-methyl-3-{[5-(4-methylpiperazin-1-yl)pyridin-2-yl]amino}-1,2-dihydropyridin-2-one] yielded an EC50 of 28.9 nM.
Still for that read-out and setting: then `Cn1cc(-c2cccc(N3Cc4cc(C(C)(C)C)sc4C3=O)c2CO)nc(Nc2ccc(C3CCNCC3)cc2)c1=O` [Compound 152, 5-(3-{2-tert-butyl-6-oxo-4H,5H,6H-thieno[2,3-c]pyrrol-5-yl}-2-(hydroxymethyl)phenyl)-1-methyl-3-{[4-(piperidin-4-yl)phenyl]amino}-1,2-dihydropyrazin-2-one], with 306 nM; and `Cn1cc(-c2cccc(N3Cc4cc(C(C)(C)C)sc4C3=O)c2CO)cc(Nc2cc3n(n2)CCOC3)c1=O` [Compound 154, 5-(3-{2-tert-butyl-6-oxo-4H,5H,6H-thieno[2,3-c]pyrrol-5-yl}-2-(hydroxymethyl)phenyl)-1-methyl-3-{4H,6H,7H-pyrazolo[3,2-c][1,4]oxazin-2-ylamino}-1,2-dihydropyridin-2-one], with 149 nM.
`Cc1cc(Nc2cc(-c3cccc(N4Cc5cc(C(C)(C)C)sc5C4=O)c3CO)cn(C)c2=O)n[nH]1` [Compound 157, 5-(3-{2-tert-butyl-6-oxo-4H,5H,6H-thieno[2,3-c]pyrrol-5-yl}-2-(hydroxymethyl)phenyl)-1-methyl-3-[(5-methyl-1H-pyrazol-3-yl)amino]-1,2-dihydropyridin-2-one] returned an EC50 of 229 nM. Compared with the last compound, the EC50 is about 1.5-fold higher.
On the same count and under the same terms, with `Cn1cc(-c2cccc(N3Cc4cc(C(C)(C)C)sc4C3=O)c2CO)nc(Nc2ccc(N3CCOCC3)cc2)c1=O` [Compound 160, 5-(3-{2-tert-butyl-6-oxo-4H,5H,6H-thieno[2,3-c]pyrrol-5-yl}-2-(hydroxymethyl)phenyl)-1-methyl-3-{[4-(morpholin-4-yl)phenyl]amino}-1,2-dihydropyrazin-2-one] the figure was 153 nM.

A further test deals with production of CD69 by B lymphocytes in human whole blood activated with goat F(ab')2 anti-human IgM. Nature of the test: CD69 Whole Blood Assay. The format is cell-based. Particulars: Lymphocyte, anti-IgM stimulation, 20 hours, CD69 positive of CD20 positive cells. An excerpt:
A CD69 Whole Blood Assay can be conducted on Formula I compounds to determine the ability of compounds to inhibit the production of CD69 by B lymphocytes in human whole blood activated by crosslinking surface IgM with goat F(ab′)2 anti-human IgM (Example 907).
Human blood is obtained from healthy volunteers, with the following restrictions: 1 week drug-free, non-smokers. Blood (approximately 20 mls to test 8 compounds) is collected by venipuncture into Vacutainer® (Becton, Dickinson and Co.) tubes with sodium heparin.
Solutions of Formula I compounds at 10 mM in DMSO are diluted 1:10 in 100% DMSO, then are diluted by three-fold serial dilutions in 100% DMSO for a ten point dose-response curve. The compounds are further diluted 1:10 in PBS and then an aliquot of 5.5 μl of each compound is added in duplicate to a 2 ml 96-well plate; 5.5 μl of 10% DMSO in PBS is added as control and no-stimulus wells. Human whole blood—HWB (100 μl) is added to each well. After mixing the plates are incubated at 37° C., 5% CO2, 100% humidity for 30 minutes. Goat F(ab′)2 anti-human IgM (10 μl of a 500 μg/ml solution, 50 μg/ml final) is added to each well (except the no-stimulus wells) with mixing and the plates are incubated for an additional 20 hours. At the end of the 20 hour incubation, samples are incubated with fluorescent labeled antibodies for 30 minutes, at 37° C., 5% CO2, 100% humidity. Include induced control, unstained and single stains for compensation adjustments and initial voltage settings. Samples are then lysed with PharM Lyse™ (BD Biosciences Pharmingen) according to the manufacturer's instructions. Samples are then transferred to a 96 well plate suitable to be run on the BD Biosciences HTS 96 well system on the LSRII machine. Data acquired and Mean Fluorescence Intensity values were obtained using BD Biosciences DIVA Software. Results are initially analyzed by FACS analysis software (Flow Jo). […] The IC50 values are calculated by Prism version 5, using a nonlinear regression curve fit.
Consider `Cn1cc(-c2cccc(N3Cc4cc(C(C)(C)C)ccc4C3=O)c2CO)cc(Nc2ccncn2)c1=O` [Compound 107, 5-tert-butyl-2-(2-(hydroxymethyl)-3-(1-methyl-6-oxo-5-(pyrimidin-4-ylamino)-1,6-dihydropyridin-3-yl)phenyl)isoindolin-1-one], for which half-maximal inhibition (IC50) was put at 605 nM. That is a sub-micromolar value.
Same read-out and setting: then `Cn1cc(-c2cccc(N3Cc4cc(C(C)(C)C)ccc4C3=O)c2CO)cc(Nc2cc(C3CC3)n[nH]2)c1=O` [Compound 110, 5-tert-butyl-2-(3-(5-(3-cyclopropyl-1H-pyrazol-5-ylamino)-1-methyl-6-oxo-1,6-dihydropyridin-3-yl)-2-(hydroxymethyl)phenyl) isoindolin-1-one], with 1100 nM.
On the same count and under the same terms, then `Cn1cc(-c2cccc(N3Cc4cc(C(C)(C)C)ccc4C3=O)c2CO)cc(Nc2ccn(CCO)n2)c1=O` [Compound 119], with 157 nM; and `CN1CCN(c2ccc(Nc3cc(-c4cccc(N5Cc6cc(C(C)(C)C)ccc6C5=O)c4CO)cn(C)c3=O)nn2)CC1` [Compound 122, 5-tert-butyl-2-(2-(hydroxymethyl)-3-(1-methyl-5-(6-(4-methylpiperazin-1-yl)pyridazin-3-ylamino)-6-oxo-1,6-dihydropyridin-3-yl)phenyl)isoindolin-1-one], with 185 nM; and `Cn1cc(-c2cccc(N3Cc4cc(C(C)(C)C)sc4C3=O)c2CO)cc(Nc2ccn(CCO)n2)c1=O` [Compound 139, 5-(3-{2-tert-butyl-6-oxo-4H,5H,6H-thieno[2,3-c]pyrrol-5-yl}-2-(hydroxymethyl)phenyl)-3-{[1-(2-hydroxyethyl)-1H-pyrazol-3-yl]amino}-1-methyl-1,2-dihydropyridin-2-one], with 42.6 nM.
Regarding `Cn1cc(-c2cccc(N3Cc4cc(C(C)(C)C)sc4C3=O)c2CO)cc(Nc2ccc(N3CCOCC3)cn2)c1=O` [Compound 151, 5-(3-{2-tert-butyl-6-oxo-4H,5H,6H-thieno[2,3-c]pyrrol-5-yl}-2-(hydroxymethyl)phenyl)-1-methyl-3-{[5-(morpholin-4-yl)pyridin-2-yl]amino}-1,2-dihydropyridin-2-one], the IC50 came to 112 nM.
Still for that read-out and setting: with `Cn1cc(-c2cccc(N3Cc4cc(C(C)(C)C)sc4C3=O)c2CO)nc(Nc2ccc(N3CCOCC3)cc2)c1=O` [Compound 160, 5-(3-{2-tert-butyl-6-oxo-4H,5H,6H-thieno[2,3-c]pyrrol-5-yl}-2-(hydroxymethyl)phenyl)-1-methyl-3-{[4-(morpholin-4-yl)phenyl]amino}-1,2-dihydropyrazin-2-one] the figure was 116 nM.
